Data reported in US20260374739A1, “SMALL MOLECULAR WEIGHT CHEMICAL COMPOUND TO ANTAGONIZE EPH-EPHRIN TETRAMERIZATION AND INHIBIT BIDIRECTIONAL SIGNALING” (THE BOARD OF REGENTS OF THE UNIVERSITY OF TEXAS SYSTEM, priority 2022, published 2026).
pIC50: −log10 of the molar value. Several values for one entry are separate records, joined by “and”; a condition that tells them apart may be missing. Equal entries are not always repeated. Structures can show the parent of a compound that is named as a salt. Marks after values point to notes of the source that are not given here.

Key:
EphrinB2-EphB2 [1] = target: T1, EphrinB2-EphB2 (Homo sapiens, UniProt P29323); assay: Octet tetramerization inhibition, immobilized human EphrinB2 binding to 50 nM soluble human EphB2; details: EphrinB2-EphB2
T1 construct: soluble human EphB1-His, EphB2-His, and EphB4-His ectodomains; commercially available human EphrinB1-Fc (EB1), EphrinB2-Fc (EB2), and EphrinB3-Fc (EB3) ectodomain proteins; purchased
T1 sequence (P29323 19-543 limits assumed): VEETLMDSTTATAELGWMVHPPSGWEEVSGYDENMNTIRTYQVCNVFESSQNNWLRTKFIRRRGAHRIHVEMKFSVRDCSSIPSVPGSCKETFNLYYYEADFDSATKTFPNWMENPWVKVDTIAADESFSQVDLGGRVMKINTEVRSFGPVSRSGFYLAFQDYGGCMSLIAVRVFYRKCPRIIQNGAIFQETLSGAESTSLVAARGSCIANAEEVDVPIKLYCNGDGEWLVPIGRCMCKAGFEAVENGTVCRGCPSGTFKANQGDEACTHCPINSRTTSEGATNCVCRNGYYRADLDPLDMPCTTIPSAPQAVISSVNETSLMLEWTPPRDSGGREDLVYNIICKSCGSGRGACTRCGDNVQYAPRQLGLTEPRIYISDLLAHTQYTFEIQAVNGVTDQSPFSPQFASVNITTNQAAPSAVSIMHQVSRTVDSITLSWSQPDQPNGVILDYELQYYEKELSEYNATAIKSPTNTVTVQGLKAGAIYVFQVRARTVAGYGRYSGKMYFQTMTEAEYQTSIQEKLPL

EphrinB2-EphB1 = target: T2, EphrinB2-EphB1 (Homo sapiens, UniProt P54762); assay: Octet 80 sec association/500 sec dissociation, immobilized human EphrinB2-Fc binding to soluble human EphB1-His; details: for EphB1 Inhibition Percent, Inhibition of Association ONLY: at 3.2 μM and 80 seconds; for EphB1 Inhibition Percent, Inhibition of Association ONLY / EphB1 Inhibition Percent, Inhibition of Association-Dissociation: immobilized human EphrinB2, 25 nM soluble human EphB1; for EphB1 Inhibition Percent, Inhibition of Association-Dissociation: at 3.2 μM and 580 seconds
T2 construct: soluble human EphB1-His, EphB2-His, and EphB4-His ectodomains; commercially available human EphrinB1-Fc (EB1), EphrinB2-Fc (EB2), and EphrinB3-Fc (EB3) ectodomain proteins; purchased
T2 sequence (P54762 18-540 limits assumed): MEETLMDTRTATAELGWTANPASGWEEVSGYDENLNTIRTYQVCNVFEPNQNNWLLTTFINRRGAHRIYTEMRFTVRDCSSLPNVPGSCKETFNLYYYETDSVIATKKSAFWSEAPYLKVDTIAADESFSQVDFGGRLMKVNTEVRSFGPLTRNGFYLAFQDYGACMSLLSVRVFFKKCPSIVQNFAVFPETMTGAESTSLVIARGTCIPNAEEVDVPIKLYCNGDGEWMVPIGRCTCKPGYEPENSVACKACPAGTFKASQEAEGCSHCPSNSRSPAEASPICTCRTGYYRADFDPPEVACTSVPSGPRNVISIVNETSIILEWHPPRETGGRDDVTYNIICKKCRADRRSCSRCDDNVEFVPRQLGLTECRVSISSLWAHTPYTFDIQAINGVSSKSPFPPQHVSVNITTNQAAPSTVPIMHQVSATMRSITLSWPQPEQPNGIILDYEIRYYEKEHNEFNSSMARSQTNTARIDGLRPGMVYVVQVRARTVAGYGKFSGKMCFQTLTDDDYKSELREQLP
Protocol: (§1) In another experiment, whether certain A20 analogs might have specificity for different Eph receptors was tested. An Octet RED384 system was used to obtain biophysical ON-OFF binding data (association-dissociation) for the three different human EphrinB2-EphB1, EphrinB2-EphB2, and EphrinB2-EphB4 protein-protein interactions and to assess the effect of A20 chemicals on the binding kinetics.
(§2) FIGS. 72A-72C show three example Octet sensorgram response traces for the immobilized human EphrinB2 ectodomain protein binding to soluble forms of the human EphB1, EphB2, and EphB4 ectodomain proteins, in the absence or presence of an A20 chemical (buffer conditions are always PBSTD:PBS with 0.05% Tween-20, 1% DMSO, and +/− indicated chemical). After loading EphrinB2-Fc protein to Octet AHC biosensors, washing, and obtaining stable baseline measurements in the appropriate PBSTD (either with or without indicated chemical), the sensors are placed in its buffer that also contains the indicated soluble EphB protein for the association step (0-80″), and then returned to its buffer for the dissociation step (81″-580″). In each figure (FIGS. 72A-72C), a sensorgram run using 10 μM of the 2×HCl salt form of A20-I is compared to the no compound control run to exemplify the maximum level of reduced response signal typically obtained with a potent A20 chemical.
(§3) Because the response levels during the dissociation step plateau for the EphrinB2-EphB2 and EphrinB2-EphB1 interactions by the first 80″, AUCs were also calculated for run data encompassing the first 160″ of each experiment to account for both the 80″ association data (red asterisks) and the first 80″ of dissociation data (marked by green line and asterisks).
(§4) The selectivity of another A20 analog (a 3×HCL salt form of compound BQPB4) in comparison to previously tested compound, A20-1, was tested as described in Example 27 above.
(§5) Further to the experiments listed above, a series of dose-response experiments were conducted to determine the IC50 of a selected A20 chemical (A20-1) on the kinetics of human EphrinB2 ligand ectodomain protein binding to its cognate human EphB1, EphB2, and EphB4 receptor ectodomain proteins. FIG. 74A-74C are representative sensorgrams showing the effect of 0, 0.1, 0.2, 0.4, 0.8, 1.6, and 3.2 μM, concentrations of the 2×HCl salt of A20-I along with a 10 μM max standard (also A20-1) on three different Ephrin-EphB interactions (e.g., EphB1 in FIG. 74A, EphB2 in FIG. 74B and EphB4 in FIG. 74C). […] Additional IC50 values were determined at specific timepoints, at 75″ into the association step and at 55″ into the dissociation step (135″).
(§6) All absolute and relative IC50 values are provided in the Table 6 below, where absolute are based off the full binding sensorgram traces, and relative are based off of the max control traces.
(§7) In another experiment, the % inhibition for various A20 analog chemicals against the three different EphrinB2-EphB protein interactions was determined. Specifically, the percent inhibition for immobilized human EphrinB2-Fc binding to 25 nM soluble human EphB1-His (FIG. 76A, enlarged in FIG. 76D), EphB2-His (FIG. 76B, enlarged in FIG. 76E), and EphB4-His (FIG. 76C, enlarged in FIG. 76F) with 3511-I, 8009-9255, QTM-Br, A19, A19-NO2, and IM (all at 3.2 μM) was determined.

EphrinB2-EphB2 [2] = target: T1, EphrinB2-EphB2; assay: Octet 80 sec association/500 sec dissociation, immobilized human EphrinB2-Fc binding to soluble human EphB2-His; details: for EphB2 Inhibition Percent, Inhibition of Association ONLY: at 3.2 μM and 80 seconds; for EphB2 Inhibition Percent, Inhibition of Association ONLY / EphB2 Inhibition Percent, Inhibition of Association-Dissociation: immobilized human EphrinB2, 25 nM soluble human EphB2; for EphB2 Inhibition Percent, Inhibition of Association-Dissociation: at 3.2 μM and 580 seconds
Protocol: as §1, §2, §3, §4, §5, §6, §7

EphrinB2-EphB4 = target: T3, EphrinB2-EphB4 (Homo sapiens, UniProt P54760); assay: Octet 80 sec association/500 sec dissociation, immobilized human EphrinB2-Fc binding to soluble human EphB4-His; details: immobilized human EphrinB2, 25 nM soluble human EphB4; for EphB4 Inhibition Percent, Inhibition of Association ONLY: at 3.2 μM and 80 seconds; for EphB4 Inhibition Percent, Inhibition of Association-Dissociation: at 3.2 μM and 580 seconds
T3 construct: soluble human EphB1-His, EphB2-His, and EphB4-His ectodomains; commercially available human EphrinB1-Fc (EB1), EphrinB2-Fc (EB2), and EphrinB3-Fc (EB3) ectodomain proteins; purchased
T3 sequence (P54760 16-539 limits assumed): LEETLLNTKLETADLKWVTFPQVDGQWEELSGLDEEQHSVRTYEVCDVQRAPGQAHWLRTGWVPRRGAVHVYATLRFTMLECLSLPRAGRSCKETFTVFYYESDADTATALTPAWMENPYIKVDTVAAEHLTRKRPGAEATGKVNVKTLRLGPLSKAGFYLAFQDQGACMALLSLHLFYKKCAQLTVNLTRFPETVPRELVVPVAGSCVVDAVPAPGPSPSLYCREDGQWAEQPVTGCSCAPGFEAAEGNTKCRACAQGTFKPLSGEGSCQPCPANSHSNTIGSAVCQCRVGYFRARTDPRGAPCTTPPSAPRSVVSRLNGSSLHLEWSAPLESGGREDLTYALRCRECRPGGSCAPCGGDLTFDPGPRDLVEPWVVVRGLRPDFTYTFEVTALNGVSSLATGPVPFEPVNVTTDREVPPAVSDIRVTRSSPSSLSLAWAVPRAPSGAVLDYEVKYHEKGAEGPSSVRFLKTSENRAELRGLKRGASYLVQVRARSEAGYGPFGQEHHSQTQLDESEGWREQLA
Protocol: as §1, §2, §3, §4, §5, §6, §7

[3] = EphB2, 25 nM EphB2, 3.2 μM compound, A20-I as max control, 0* = less than 0, no inhibition, listed as A20-1.2xMSA, methanesulfonate

SMILES | EphB1 Inhibition Percent, Inhibition of Association ONLY (EphrinB2-EphB1) | EphB1 Inhibition Percent, Inhibition of Association-Dissociation (EphrinB2-EphB1) | EphB2 Inhibition Percent, Inhibition of Association ONLY (EphrinB2-EphB2 [2]) | EphB2 Inhibition Percent, Inhibition of Association-Dissociation (EphrinB2-EphB2 [2]) | EphB4 Inhibition Percent, Inhibition of Association ONLY (EphrinB2-EphB4) | EphB4 Inhibition Percent, Inhibition of Association-Dissociation (EphrinB2-EphB4) | other results
Oc1ccc(CN2CCN(Cc3ccc(Br)cc3)CC2)c2cccnc12 [Compound 43, 5-((4-(4-bromobenzyl)piperazin-1-ium-1-yl)methyl)-8-hydroxyquinolin-1-ium chloride] | 19.9% and 33.5% | 36.5% and 47.3% | 37.8% and 62.3% | 56.3% and 75.4% | – | – | pIC50 (EphrinB2-EphB2 [1]; Absolute AUC/IC50, Table A): 5.51 and 5.49; pIC50 (EphrinB2-EphB2 [1]; Absolute Association IC50 (300 sec), Table A): 5.57 and 5.56; pIC50 (EphrinB2-EphB2 [1]; Absolute Dissociation IC50 (450 sec), Table A): 5.55 and 5.52; pIC50 (EphrinB2-EphB2 [1]; Relative AUC/IC50, Table A, compound 7: association only): 5.65; pIC50 (EphrinB2-EphB2 [1]; Relative Association IC50 (300 sec), Table A): 5.71; pIC50 (EphrinB2-EphB2 [1]; Relative Dissociation IC50 (450 sec), Table A): 5.63 and 5.67
Oc1ccc(CN2CCN(Cc3ccc(C(F)(F)F)cc3)CC2)c2cccnc12 [Compound 49, 8-hydroxy-5-((4-(4-(trifluoromethyl)benzyl)piperazin-1-ium-1-yl)methyl)quinolin-1-ium chloride] | – | 19.8% and 39.0% | 21.3% and 24.9% | 46.2% and 36.2% | 0*/0*% | 0% and 2.8% | –
COc1ccccc1N1CCN(Cc2cc(I)c(O)c3ncccc23)CC1 [Compound 71-A, 7-iodo-5-((4-(2-methoxyphenyl)piperazin-1-yl)methyl)quinolin-8-ol dihydrochloride] | 39.6% | 52.3% | 58.7% | 73.2% | 17.5% | 35.6% | –
Oc1ccc(CN2CCN(C3CCCC3)CC2)c2cccnc12 [Compound 83, 5-((4-cyclopentylpiperazin-1-yl)methyl)quinolin-8-ol] | 21.4% | 23.6% | 20.9% | 21.2% | 0.5% | 0.5% | –
Oc1c(I)cc(CN2CCOCC2)c2cccnc12 [Compound 89, 4-((8-hydroxy-7-iodoquinolin-1-ium-5-yl)methyl)morpholin-4-ium methanesulfonate] | – | – | – | – | – | – | % Inhibition: Association + Dissociation (160 sec) (EphrinB2-EphB1; EphB1, 25 nM EphB1, 3.2 μM compound, A20-I as max control, 0* = less than 0, no inhibition, listed as A20-1.2xMSA, methanesulfonate): 46.3%; EphB1 Inhibition Percent, Inhibition of Association ONLY (EphrinB2-EphB1; methanesulfonate): 28.4%; EphB1 Inhibition Percent, Inhibition of Association-Dissociation (EphrinB2-EphB1; methanesulfonate): 46.3%; % Inhibition: Association + Dissociation (160 sec) (EphrinB2-EphB2 [2]; [3]): 74.6%; % Inhibition: Association ONLY (80 sec) (EphrinB2-EphB2 [2]; [3]): 55.1%; EphB2 Inhibition Percent, Inhibition of Association ONLY (EphrinB2-EphB2 [2]; methanesulfonate): 55.1%; EphB2 Inhibition Percent, Inhibition of Association-Dissociation (EphrinB2-EphB2 [2]; methanesulfonate): 74.6%; EphB4 Inhibition Percent, Inhibition of Association ONLY (EphrinB2-EphB4; methanesulfonate): 1.7%; EphB4 Inhibition Percent, Inhibition of Association-Dissociation (EphrinB2-EphB4; methanesulfonate): 25.4%
